Measured values published in patent publication US9040533B2, “Oxime-substituted-quinoxaline-type piperidine compounds as ORL-1 modulators” (priority 2012, dated 2015).

Assays:
Test in all cases: biochemical
[1] = biological target: CYP3A4 (Homo sapiens, UniProt P08684)
[2] = biological target: T1, CYP1A2 (Homo sapiens, UniProt P05177)
T1 sequence (P05177 1-516): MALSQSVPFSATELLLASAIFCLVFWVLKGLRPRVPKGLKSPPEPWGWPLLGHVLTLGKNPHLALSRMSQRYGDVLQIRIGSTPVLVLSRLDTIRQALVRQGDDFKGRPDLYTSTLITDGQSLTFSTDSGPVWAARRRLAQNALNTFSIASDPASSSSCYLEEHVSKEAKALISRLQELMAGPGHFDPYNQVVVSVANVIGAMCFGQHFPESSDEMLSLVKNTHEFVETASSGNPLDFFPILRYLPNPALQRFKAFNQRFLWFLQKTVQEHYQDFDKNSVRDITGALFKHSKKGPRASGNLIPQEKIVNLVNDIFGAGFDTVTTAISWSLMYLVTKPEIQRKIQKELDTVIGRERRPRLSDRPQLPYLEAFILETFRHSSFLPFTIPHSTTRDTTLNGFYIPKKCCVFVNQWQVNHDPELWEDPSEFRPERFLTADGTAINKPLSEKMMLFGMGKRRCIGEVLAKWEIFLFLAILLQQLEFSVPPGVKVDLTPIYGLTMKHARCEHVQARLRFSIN

[3] = biological target: CYP2C19 (Homo sapiens, UniProt P33261)
Sequence of CYP2C19 (P33261 whole entry): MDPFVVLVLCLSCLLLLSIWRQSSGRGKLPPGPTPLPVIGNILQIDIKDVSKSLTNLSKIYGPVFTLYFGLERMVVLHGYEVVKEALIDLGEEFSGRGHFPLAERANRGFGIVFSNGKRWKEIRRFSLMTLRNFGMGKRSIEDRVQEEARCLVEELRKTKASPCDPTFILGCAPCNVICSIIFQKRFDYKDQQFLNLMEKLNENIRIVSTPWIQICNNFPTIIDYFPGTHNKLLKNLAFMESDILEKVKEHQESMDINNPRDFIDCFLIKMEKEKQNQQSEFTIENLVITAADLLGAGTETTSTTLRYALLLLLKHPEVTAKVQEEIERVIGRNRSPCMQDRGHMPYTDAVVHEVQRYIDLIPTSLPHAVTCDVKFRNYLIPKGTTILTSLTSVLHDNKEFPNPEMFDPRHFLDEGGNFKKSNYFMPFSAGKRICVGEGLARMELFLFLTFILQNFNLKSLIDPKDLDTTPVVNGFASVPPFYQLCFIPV

[4] = biological target: CYP2C9 (Homo sapiens, UniProt P11712)
Sequence of CYP2C9 (P11712 whole entry): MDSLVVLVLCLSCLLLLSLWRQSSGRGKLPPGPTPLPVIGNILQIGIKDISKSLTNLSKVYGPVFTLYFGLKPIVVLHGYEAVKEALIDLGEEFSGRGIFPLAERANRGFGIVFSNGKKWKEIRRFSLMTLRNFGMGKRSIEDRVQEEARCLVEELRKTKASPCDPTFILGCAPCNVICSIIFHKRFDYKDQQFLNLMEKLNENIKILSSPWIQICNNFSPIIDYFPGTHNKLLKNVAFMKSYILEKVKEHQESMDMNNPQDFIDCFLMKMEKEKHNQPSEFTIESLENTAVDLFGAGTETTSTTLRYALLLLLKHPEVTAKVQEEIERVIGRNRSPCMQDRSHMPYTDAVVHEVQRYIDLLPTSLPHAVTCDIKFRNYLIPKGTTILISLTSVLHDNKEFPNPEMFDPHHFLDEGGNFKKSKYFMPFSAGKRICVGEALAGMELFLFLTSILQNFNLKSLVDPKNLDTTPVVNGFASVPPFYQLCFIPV

[5] = biological target: CYP2D6 (Homo sapiens, UniProt P10635)
Sequence of CYP2D6 (P10635 whole entry): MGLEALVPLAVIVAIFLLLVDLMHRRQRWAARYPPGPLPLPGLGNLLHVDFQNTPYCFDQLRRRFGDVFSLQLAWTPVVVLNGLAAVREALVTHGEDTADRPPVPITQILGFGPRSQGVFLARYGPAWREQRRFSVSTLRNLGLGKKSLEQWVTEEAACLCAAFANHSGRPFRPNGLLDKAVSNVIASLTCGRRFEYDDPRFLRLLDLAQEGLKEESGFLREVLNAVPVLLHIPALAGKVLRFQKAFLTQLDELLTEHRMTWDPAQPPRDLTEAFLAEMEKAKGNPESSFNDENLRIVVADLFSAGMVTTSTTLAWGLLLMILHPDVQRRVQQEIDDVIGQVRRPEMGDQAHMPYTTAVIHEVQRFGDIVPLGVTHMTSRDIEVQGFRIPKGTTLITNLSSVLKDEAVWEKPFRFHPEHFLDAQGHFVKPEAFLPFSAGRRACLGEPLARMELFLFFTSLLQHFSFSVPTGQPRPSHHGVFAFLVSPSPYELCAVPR

Sequence of CYP3A4 (P08684 whole entry): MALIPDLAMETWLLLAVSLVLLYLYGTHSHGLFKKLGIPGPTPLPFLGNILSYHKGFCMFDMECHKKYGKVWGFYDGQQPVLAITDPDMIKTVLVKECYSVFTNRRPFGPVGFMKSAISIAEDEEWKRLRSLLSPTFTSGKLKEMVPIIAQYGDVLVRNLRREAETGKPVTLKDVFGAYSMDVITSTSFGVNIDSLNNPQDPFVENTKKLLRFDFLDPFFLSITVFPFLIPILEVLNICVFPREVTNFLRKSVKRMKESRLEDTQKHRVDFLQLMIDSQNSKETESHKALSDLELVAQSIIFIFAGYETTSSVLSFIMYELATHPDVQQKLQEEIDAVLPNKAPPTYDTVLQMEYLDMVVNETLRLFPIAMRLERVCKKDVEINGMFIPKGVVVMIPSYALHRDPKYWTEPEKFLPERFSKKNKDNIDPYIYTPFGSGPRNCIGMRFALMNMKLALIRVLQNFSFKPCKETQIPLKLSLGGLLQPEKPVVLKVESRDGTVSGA

| SMILES | IC50 [1] [µM] | IC50 [2] [µM] | IC50 [3] [µM] | IC50 [4] [µM] | IC50 [5] [µM] |
| --- | --- | --- | --- | --- | --- |
| CON=C(CCC(=O)O)c1nc2ccccc2n([C@H]2C[C@H]3CCC[C@@H](C2)N3C2CC3CCCC(C3)C2)c1=O (stereo partly drawn) [Compound 2, 4-[4-((1R,3R)—(S)-9-bicyclo[3.3.1]non-3-yl-9-aza-bicyclo[3.3.1]non-3-yl)-3-oxo-3,4-dihydro-quinoxalin-2-yl]-4-methoxyimino-butyric acid] | > 20 | > 20 | > 20 | > 20 | > 20 |
| O=C(O)CCC(=NOCCO)c1nc2ccccc2n([C@H]2C[C@H]3CCC[C@@H](C2)N3C2CC3CCCC(C3)C2)c1=O (stereo partly drawn) [Compound 3, 4-[4-((1R,3R)—(S)-9-Bicyclo[3.3.1]non-3-yl-9-aza-bicyclo[3.3.1]non-3-yl)-3-oxo-3,4-dihydro-quinoxalin-2-yl]-4-(2-hydroxy-ethoxyimino)-butyric acid] | > 20 | > 20 | > 20 | > 20 | > 20 |
| O=C(O)/C(=N\OCCO)c1nc2ccccc2n([C@H]2C[C@H]3CCC[C@@H](C2)N3C2CC3CCCC(C3)C2)c1=O (stereo partly drawn) [Compound 4] | > 20 | > 20 | > 20 | > 20 | > 20 |
| CCN(CC)C(=O)CO/N=C(\C(=O)O)c1nc2ccccc2n([C@H]2C[C@H]3CCC[C@@H](C2)N3C2CC3CCCC(C3)C2)c1=O (stereo partly drawn) [Compound 5, [4-((1R,3R,7S)-9-bicyclo[3.3.1]non-3-yl-9-aza-bicyclo[3.3.1]non-3-yl)-3-oxo-3,4-dihydro-quinoxalin-2-yl]-diethylcarbamoylmethoxyimino-acetic acid] | > 20 | > 20 | > 20 | > 20 | > 20 |
| O=C(O)CCC(=NO)c1nc2ccccc2n([C@H]2C[C@H]3CCC[C@@H](C2)N3C2CC3CCCC(C3)C2)c1=O (stereo partly drawn) [Compound 7, 4-[4-((1R,3R)—(S)-9-bicyclo[3.3.1]non-3-yl-9-aza-bicyclo[3.3.1]non-3-yl)-3-oxo-3,4-dihydro-quinoxalin-2-yl]-4-hydroxyimino-butyric acid] | > 20 | > 20 | > 20 | > 20 | > 20 |
| CO/N=C(\CCC(=O)O)c1nc2ccccc2n([C@H]2C[C@H]3CCC[C@@H](C2)N3C2CCCCCCCCC2)c1=O [Compound 9, 4-[4-((1R,3R,7S)-9-cyclodecyl-9-aza-bicyclo[3.3.1]non-3-yl)-3-oxo-3,4-dihydro-quinoxalin-2-yl]-4-methoxyimino-butyric acid] | > 20 | > 20 | > 20 | > 20 | > 20 |
| CCO/N=C(\CCC(=O)O)c1nc2ccccc2n([C@H]2C[C@H]3CCC[C@@H](C2)N3C2CC3CCCC(C3)C2)c1=O (stereo partly drawn) [Compound 11, 4-[4-((1R,3R,7S)-9-bicyclo[3.3.1]non-3-yl-9-aza-bicyclo[3.3.1]non-3-yl)-3-oxo-3,4-dihydro-quinoxalin-2-yl]-4-ethoxyimino-butyric acid] | > 20 | > 20 | > 20 | > 20 | > 20 |
| CON=C(CCC(=O)O)c1nc2ccccc2n([C@H]2C[C@H]3CC[C@@H](C2)N3C2CC3CCCCC(C3)C2)c1=O (stereo partly drawn) [Compound 12, 4-(4-((1R,3R)-8-(bicyclo[4.3.1]decan-8-yl)-8-azabicyclo[3.2.1]octan-3-yl)-3-oxo-3,4-dihydroquinoxalin-2-yl)-4-(methoxyimino)butanoic acid] | > 20 | > 20 | > 20 | > 20 | > 20 |
| O=C(O)C(=NOCCO)c1nc2ccccc2n([C@H]2C[C@H]3CCC[C@@H](C2)N3C2CC3CCCCC(C3)C2)c1=O (stereo partly drawn) [Compound 15] | > 20 | > 20 | > 20 | > 20 | > 20 |
| C/C(=N\OCC(=O)O)c1nc2ccccc2n([C@H]2C[C@H]3CCC[C@@H](C2)N3C2CC3CCCC(C3)C2)c1=O (stereo partly drawn) [Compound 16] | > 20 | > 20 | > 20 | > 20 | > 20 |
| CON=C(C(=O)O)c1nc2ccccc2n([C@H]2C[C@H]3CCC[C@@H](C2)N3C2CC3CCCCC(C3)C2)c1=O (stereo partly drawn) [Compound 17] | > 20 | > 20 | > 20 | > 20 | > 20 |
| O=C(O)CCC(=NO)c1nc2ccccc2n([C@H]2C[C@H]3CCC[C@@H](C2)N3C2CCCCCCCCC2)c1=O [Compound 18] | > 20 | > 20 | > 20 | > 20 | > 20 |
| O=C(O)C(=NOCCO)c1nc2ccccc2n([C@H]2C[C@H]3CC[C@@H](C2)N3C2CC3CCCCC(C3)C2)c1=O (stereo partly drawn) [Compound 19] | > 20 | > 20 | > 20 | > 20 | > 20 |
| CO/N=C(\C(=O)O)c1nc2ccccc2n([C@H]2C[C@H]3CC[C@@H](C2)N3C2CC3CCCCC(C3)C2)c1=O (stereo partly drawn) [Compound 20, (Z)-2-(4-((1R,3R)-8-(bicyclo[4.3.1]decan-8-yl)-8-azabicyclo[3.2.1]octan-3-yl)-3-oxo-3,4-dihydroquinoxalin-2-yl)-2-(methoxyimino)acetic acid] | > 20 | > 20 | > 20 | > 20 | > 20 |
| CC(=NOCC(=O)O)c1nc2ccccc2n(C2CC3CCC(C2)N3C2CC3CCCCC(C3)C2)c1=O (stereo not drawn) [Compound 22] | > 20 | > 20 | > 20 | > 20 | > 20 |
| C/C(=N\OCC(=O)O)c1nc2ccccc2n([C@H]2C[C@H]3CCC[C@@H](C2)N3C2CC3CCCCC(C3)C2)c1=O (stereo partly drawn) [Compound 24, 2-((E)-1-(4-((1R,3R)-9-(bicyclo[4.3.1]decan-8-yl)-9-azabicyclo[3.3.1]nonan-3-yl)-3-oxo-3,4-dihydroquinoxalin-2-yl)ethylideneaminooxy)acetic acid] | > 20 | > 20 | > 20 | > 20 | > 20 |
| CC[C@@H]1C[C@H]2CC(N3[C@@H]4CCC[C@H]3CC(n3c(=O)c(/C(CCC(=O)O)=N/OC)nc5ccccc53)C4)C[C@@H](C1)C2 (stereo partly drawn) [Compound 25] | > 20 | > 20 |  | > 20 | > 20 |
| CCO/N=C(\CCC(=O)O)c1nc2ccccc2n([C@H]2C[C@H]3CCC[C@@H](C2)N3C2CC3CC(CC)CC(C3)C2)c1=O (stereo partly drawn) [Compound 26] | > 20 | > 20 |  | > 20 | > 20 |
| CCN(CC)CCO/N=C(\CCC(=O)O)c1nc2ccccc2n(C2C[C@H]3CCC[C@@H](C2)N3C2C[C@@H]3C[C@@H](C)C[C@H](C2)C3)c1=O (stereo partly drawn) [Compound 27] | 8.9 | > 20 |  | > 20 | 8.7 |
| CC1CC2CC(C1)CC(N1[C@@H]3CCC[C@H]1C[C@@H](n1c(=O)c(/C(CCC(=O)O)=N/OCCCN(C)C)nc4ccccc41)C3)C2 (stereo partly drawn) [Compound 28] | 6.1 | > 20 |  | > 20 | 3 |
| CC1CC2CC(C1)CC(N1[C@@H]3CCC[C@H]1C[C@@H](n1c(=O)c(/C(CCC(=O)O)=N/OCCN(C)C)nc4ccccc41)C3)C2 (stereo partly drawn) [Compound 29] | > 20 | > 20 |  | > 20 | 11.6 |
| CCON=C(C(=O)O)c1nc2ccccc2n([C@H]2C[C@H]3CCC[C@@H](C2)N3C2CC3CCCC(C3)C2)c1=O (stereo partly drawn) [Compound 30] | > 20 | > 20 | > 20 | > 20 | > 20 |
| CC(C)ON=C(C(=O)O)c1nc2ccccc2n([C@H]2C[C@H]3CCC[C@@H](C2)N3C2CC3CCCC(C3)C2)c1=O (stereo partly drawn) [Compound 31] | > 20 | > 20 | > 20 | > 20 | > 20 |
| CCON=C(C(=O)O)c1nc2ccccc2n([C@H]2C[C@H]3CCC[C@@H](C2)N3C2CC3CCCCC(C3)C2)c1=O (stereo partly drawn) [Compound 32, 2-(4-((1R,3R)-9-(bicyclo[4.3.1]decan-8-yl)-9-azabicyclo[3.3.1]nonan-3-yl)-3-oxo-3,4-dihydroquinoxalin-2-yl)-2-(ethoxyimino)acetic acid] | > 20 | > 20 | > 20 | > 20 | > 20 |
| CCC1CC2CC(C1)CC(N1[C@@H]3CCC[C@H]1C[C@@H](n1c(=O)c(/C(CCC(=O)O)=N/OCCN(C)C)nc4ccccc41)C3)C2 (stereo partly drawn) [Compound 34] | 17.5 | 16.1 |  | > 20 | > 20 |
| CC[C@@H]1C[C@H]2CC(N3[C@@H]4CCC[C@H]3CC(n3c(=O)c(/C(CCC(=O)O)=N/OCCCN(C)C)nc5ccccc53)C4)C[C@@H](C1)C2 (stereo partly drawn) [Compound 35] | > 20 | > 20 |  | > 20 | > 20 |
